Experiments:
[1] = system: Male Sprague-Dawley rats; assay: Effect on circulating GLP-1 and GIP in vivo in rats; settings: 10 mg/kg oral
Method: On the day before the experiment, food was removed in the afternoon and the following morning animals were randomly assigned to two treatment groups, vehicle (n=7) or a GPR119 agonist (Example 1; n=8). Blood samples were collected prior to, and 90 minutes following oral administration of either vehicle (0.5% HPMC/0.1% Tween80) or 10 mg/kg of Example 1. Blood samples were treated as described above and analyzed for incretin hormones, plasma glucose and insulin. The rats were sacrificed at the end of the study by an overdose of Nembutal® pentobarbital.
Data is represented as line graphs of the measurements prior to gavage (Pre) and 90 min following administration of vehicle or GPR119 agonist (Post) analyzed for total GLP-1 (FIG. 7), total GIP (FIG. 8), plasma glucose (FIG. 9) and insulin (FIG. 10) for individual animals.

[2] = system: transgenic wild-type (WT) and GPR119 knock-out (KO) mice; assay: Effect on circulating GLP-1 and GIP in wild-type and GPR119 knock-out mice; assay type: in vivo; settings: 30 mg/kg oral gavage; for incretin hormone levels (total GLP-1 and GIP): 60 min after dosing
Method: 17 weeks old male transgenic wild-type (WT) and GPR119 knock-out (KO) mice (Charles River Laboratories, USA) were fasted overnight then randomly distributed into two treatment groups for each genotype with n=8 and n=10 animals per treatment group for KO and WT mice respectively. Animals received either vehicle (0.5% HPMC/0.1% Tween80) or a GPR119 agonist (Example 1) at a dose of 30 mg/kg (10 mL/kg), administered by oral gavage. Sixty minutes after the oral gavage the mice were anesthetized using isofluorane and a blood sample was collected by cardiac puncture, before sacrificing the animal by cervical dislocation. Blood samples were treated as described above for determination of incretin hormone levels. Plasma glucose levels were measured using an Olympus AU640 analyzer (Olympus America Inc, Melville, N.Y.), and insulin levels an electrochemoluminescence assay (Bioveris, Gaithersburg Md.).
Data is represented as box plots summarizing the distribution of data for each treatment group, as described above. Horizontal lines represent the mean data. FIG. 3 and FIG. 4 show total GLP-1 and GIP levels measured in circulation following administration of vehicle or 30 mg/kg GPR119 agonist (Example 1) in WT and KO mice.

[3] = system: male C57BL/6 mice; assay: Oral glucose tolerance in normal mice; assay type: in vivo; settings: fasted mice, Example 1 30 mg/kg, DPPIV inhibitor 10 mg/kg oral, 2 g/kg dextrose oral 1 h after dosing
Method: Nine weeks old male C57BL/6 mice (Taconic farms, USA) were fasted overnight and randomly assigned to three different treatment groups (n=9-10 per treatment arm) to receive vehicle (0.5% HPMC/0.1% Tween80), a GPR119 agonist (Example 1, 30 mg/kg) or a positive control (10 mg/kg), specifically a DPPIV inhibitor known to improve glucose tolerance in vivo by preventing degradation of the GLP-1 and GIP. Vehicle or compounds were delivered by oral gavage at a volume of 10 mL/kg, and the tip of tail was nicked using a scalpel to allow whole blood glucose measurements. One hour after administration of vehicle or test compounds, 2 g/kg of dextrose was administered by oral gavage. Whole blood glucose levels were determined from the abrasion at the tip of the tail at time points as indicated in FIG. 16 using a Glucometer (Freestyle, Therasense). At the end of the study the mice were sacrificed by cervical dislocation.

[4] = system: Male Wistar rats; assay: Glucose stimulated insulin secretion in rats, hyperglycemic clamp; assay type: in vivo
Method: Male Wistar rats (Taconic farms, USA), weighing 300-350 gram, had catheters surgically implanted into the jugular and femoral veins and allowed to recover for one week following the surgery. On the day before the experiment, food was removed in the afternoon for an overnight fast. The following morning animals were randomly assigned to three treatment groups, vehicle (n=19) and either 1 mg/kg (n=8) or 10 mg/kg (n=8) of a GPR119 agonist (Example 1), and baseline blood samples were collected from the jugular vein. Animals were then administered either vehicle or Example 1 by oral gavage. A second blood sample was collected approximately 90 minutes after the oral gavage immediately prior to starting the hyperglycemic clamp. The clamp was initiated by infusing an empirically determined glucose bolus over 15-30 seconds into the femoral vein, followed by a variable rate glucose infusion adjusted to achieve a stable plasma glucose level of 190-210 mg/dl. After infusion of the glucose bolus, blood samples were collected every 5 minutes for glucose measurements. Samples for C-peptide level were collected a 2, 5, 10, 15, 20, 25, 30, 46, 60, 90 and 120 minutes during the hyperglycemic clamp. C-peptide was measured as a surrogate for insulin as it is co-secreted with insulin in equimolar amount with lower hepatic clearance, thus a better reflection of insulin secretion from the pancreatic β-cells. All blood samples were placed in individual tubes containing a gel clot activator (Cat # T-MG, Terumo Medial Corporation, Elkton, Md.) and allowed to clot in room temperature for 20 min before centrifugation and collection of serum. Glucose levels were measured using an Olympus AU640 analyzer (Olympus America Inc, Melville, N.Y.), and C-peptide levels by an RIA (Linco Diagnostic services, St Charles, Mo.). The rats were sacrificed at the end of the study by an overdose of Nembutal.
There was no difference in plasma glucose levels between treatment groups. […] The characteristic biphasic insulin secretion response (measured as an increase in C-peptide levels) elicited by the rapid increase in plasma glucose levels is shown in FIG. 13, with the first phase occurring within the first 5 minutes and the second phase from 15 minutes and beyond.

[5] = system: Male Sprague-Dawley rats; assay: Oral glucose tolerance in rats; assay type: in vivo; settings: fasted rats, 10 mg/kg oral
Method: Eight weeks old male Sprague-Dawley rats had catheters surgically implanted into the jugular […] vein and allowed to recover for one week. Food was removed in the afternoon the day before the experiment to fast animals overnight. The following morning animals were randomly assigned to treatment groups to receive vehicle (n=7) (0.5% HPMC/0.1% Tween80), a GPR119 agonist (Example 1, 10 mg/kg) or a positive control (10 mg/kg), namely a DPPIV inhibitor as described above. Vehicle and compounds were delivered by oral gavage at a volume of […]. Two and a half hours after administration of vehicle or GPR119 agonist and one hour administration of DPPIV inhibitor, 2 g/kg dextrose was administered orally. […] The tubes were immediately centrifuged, plasma collected for subsequent measurement of glucose and hormone levels and stored at −80° C. Plasma glucose, insulin and total GLP-1 levels were measured as described above.
The data is represents as mean values±SEM from all animals within each treatment group.

[6] = fasted rats, 90 min after dosing vs pre-dose
[7] = rats, 90 min, vs vehicle or baseline

`CC(C)OC(=O)N1CCC(Oc2ncnc3c2CCN3c2ccc(S(C)(=O)=O)cc2F)CC1` [Example 1, 1-Methylethyl 4-({7-[2-fluoro-4-(methylsulfonyl)phenyl]-6,7-dihydro-5H-pyrrolo[2,3-d]pyrimidin-4-yl}oxy)-1-piperidinecarboxylate] was tested, and the “circulating levels of total GIP” value [1, 6] was “increases”, the “circulating levels of total GLP-1” value [1, 6] was “increases” and the fasting glucose [1, 7] was “not significantly affected”. The fasting insulin [1, 7] was “not significantly affected”, the “incretin hormone levels (total GLP-1 and GIP)” value ([2]; GPR119 knock out mice) was “without effect” and the fasting glucose levels ([2]; WT and KO mice, 60 min) was “not affected”. For the same compound, the fasting insulin levels ([2]; WT and KO mice, 60 min) was “not affected”, the “incretin hormone levels (total GLP-1 and GIP)” value ([2]; WT mice) was “increase” and the “glucose disposal during the oral glucose tolerance test (whole blood glucose)” value [3] was “significantly enhanced”. The “glucose infusion rates (GIR) required to sustain the hyperglycemic clamp” value ([4]; 10 mg/kg oral, compared to 1 mg/kg or vehicle) was “required more exogenous glucose”, the “C-peptide levels (surrogate for insulin secretion)” value ([4]; 10 mg/kg oral, compared to vehicle or 1 mg/kg, throughout the hyperglycemic clamp) was “significantly increased” and the “plasma glucose levels achieved during the hyperglycemic clamp” value ([4]; 1 or 10 mg/kg oral vs vehicle, clamp started about 90 min after gavage) was “no difference”. For the same compound, the “first (0-5 min) and second phase (15-90 min) glucose stimulated insulin secretory response” value ([4]; hyperglycemic clamp) was “augments”, the “reduction of total glucose area under the curve (AUC)” value ([5]; Example 1 2.5 h and DPPIV inhibitor 1 h before 2 g/kg dextrose oral) was 38% and the “glucose excursion during the 120 minutes oral glucose tolerance test” value ([5]; Example 1 2.5 h and DPPIV inhibitor 1 h before 2 g/kg dextrose oral, vs vehicle) was “significantly decreased”. For the same compound, the “baseline total GLP-1” value ([5]; before the oral glucose load, compared to vehicle and DPPIV treated animals) was “significantly increased”, the “Insulin AUC” value ([5]; oral glucose tolerance test, between treatment groups) was “not significantly different” and the “total GLP-1 AUC” value ([5]; oral glucose tolerance test, compared to vehicle and DPPIV treated animals) was “significantly increased”.

Reference: patent publication US8222261B2, “Chemical compounds” (GlaxoSmithKline, LLC, priority 2006, dated 2012)
